According to patent publication US20260151538A1, “DIFFERENTIATION AND REPROGRAMMING OF CHONDROCYTE” (ADA Forsyth Institute, Inc., priority 2022, published 2026):

Assays:
ATDC5 cells = experiment: ATDC5 micro-mass culture chondrogenesis, alcian blue staining; format: cell-based, mouse; conditions: ATDC5 cells in micro-mass culture; DHA at 0, 1, 5, 25 and 125 μM; quantified with ImageJ
Excerpt: To further investigate the beneficial effects of GATA3 stimulation on cartilage regeneration, the inventors examined GATA3 activators in chondrogenesis. Using the ATDC5 cell line derived from mouse teratocarcinoma (undifferentiated embryonal carcinoma that can give rise to all three germ layers), the inventors first cultured the cells in micro-mass followed by differentiation into chondrocytes. Next, the inventors testes if the addition of GATA3 activators to the micro-mass culture could promote chondrogenesis. Staining was then performed to detect chondrogenic cells, which were positive for alcian blue. Imaging and quantitative analysis was then carried out to determine the percentage of the positively stained area using ImageJ.

GATA3 = conditions: literature reports (Attakpa 2009; Gocke 2009; Ahmad 2017); cited from earlier work

SMILES | chondrocyte differentiation / chondrogenesis (percentage of alcian blue positively stained area) (ATDC5 cells) | GATA3 expression (transcripts and proteins) (GATA3)
Cc1ccc(C)c(OCCCC(C)(C)C(=O)O)c1 [Gemfibrozil] | substantial stimulated effects on chondrogenesis | enhance GATA3 expression
Cc1cccc(Nc2cc(Cl)nc(SCC(=O)O)n2)c1C [Pirinixic acid] | substantial stimulated effects on chondrogenesis | enhance GATA3 expression
Oc1ccc(-c2nc(-c3ccncc3)c(-c3ccc(F)cc3)[nH]2)cc1 [SB202190] | substantial stimulated effects on chondrogenesis | enhance GATA3 expression
Nc1nc2c(cnn2CCc2ccccc2)c2nc(-c3ccco3)nn12 [SCH 58261] |  | enhance GATA3 expression
N#CC(=C(/N)Sc1ccccc1N)/C(C#N)=C(\N)Sc1ccccc1N [U0126] |  | enhance GATA3 expression
